Laboratory results reported in ChEMBL document CHEMBL1201862, “PubChem BioAssay data set” (2004).
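Compound exposure: 48 hours, 5 concentrations, 96-well plates. The concentration for 50% growth inhibition is given as GI50.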 Active and inactive are the calls of the source. Rule as the data show it: active = GI50 up to about 1.1 µM and inactive = higher.

Assays:
Assay in all cases: DTP human tumour cell line panel, 48 h
786-0 = test system: 786-0
A498 = test system: A498
A549 = test system: A549
ACHN = test system: ACHN
BT-549 = test system: BT-549
CAKI-1 = test system: CAKI-1
COLO 205 = test system: COLO 205
DU-145 = test system: DU-145
EKVX = test system: EKVX
HCC 2998 = test system: HCC 2998
HCT-116 = test system: HCT-116
HCT-15 = test system: HCT-15
HL-60 = test system: HL-60
HOP-62 = test system: HOP-62
HOP-92 = test system: HOP-92
HT-29 = test system: HT-29
Hs-578T = test system: Hs-578T
IGROV-1 = test system: IGROV-1
K562 = test system: K562
KM12 = test system: KM12
LOX IMVI = test system: LOX IMVI
M14 = test system: M14
MCF7 = test system: MCF7
MDA-MB-231 = test system: MDA-MB-231
MDA-MB-435 = test system: MDA-MB-435
MDA-N = test system: MDA-N
Malme-3M = test system: Malme-3M
NCI-H226 = test system: NCI-H226
NCI-H23 = test system: NCI-H23
NCI-H460 = test system: NCI-H460
NCI-H522 = test system: NCI-H522
NCI/ADR-RES = test system: NCI/ADR-RES
OVCAR-3 = test system: OVCAR-3
OVCAR-4 = test system: OVCAR-4
OVCAR-5 = test system: OVCAR-5
OVCAR-8 = test system: OVCAR-8
PC-3 = test system: PC-3
RPMI-8226 = test system: RPMI-8226
RXF 393 = test system: RXF 393
SF-268 = test system: SF-268
SF-295 = test system: SF-295
SF-539 = test system: SF-539
SK-MEL-28 = test system: SK-MEL-28
SK-MEL-2 = test system: SK-MEL-2
SK-MEL-5 = test system: SK-MEL-5
SK-OV-3 = test system: SK-OV-3
SN12C = test system: SN12C
SNB-19 = test system: SNB-19
SNB-75 = test system: SNB-75
SR = test system: SR
SW-620 = test system: SW-620
T47D = test system: T47D
TK-10 = test system: TK-10
U-251 = test system: U-251
UACC-257 = test system: UACC-257
UACC-62 = test system: UACC-62
UO-31 = test system: UO-31
CCRF-CEM = test system: CCRF-CEM

O=C(Oc1ccc(S(=O)(=O)F)cc1F)c1ccccc1Cl
GI50 (786-0): 33.7 µM (inactive) | GI50 (A498): 57.5 µM (inactive) | GI50 (A549): 35.5 µM (inactive) | GI50 (ACHN): 56 µM (inactive) | GI50 (BT-549): 39.2 µM (inactive) | GI50 (CAKI-1): 64.9 µM (inactive) | GI50 (COLO 205): 19.5 µM (inactive) | GI50 (DU-145): 28.1 µM (inactive) | GI50 (EKVX): 24.4 µM (inactive) | GI50 (HCC 2998): 42.6 µM (inactive) | GI50 (HCT-116): 47.2 µM (inactive) | GI50 (HCT-15): 37.5 µM | GI50 (HL-60): 35.6 µM (inactive) | GI50 (HOP-62): 34.8 µM (inactive) | GI50 (HOP-92): 20.2 µM (inactive) | GI50 (HT-29): 27 µM (inactive) | GI50 (Hs-578T): 25.2 µM (inactive) | GI50 (IGROV-1): 30.8 µM (inactive) | GI50 (K562): 42.1 µM (inactive) | GI50 (KM12): 30.4 µM (inactive) | GI50 (LOX IMVI): 31.8 µM (inactive) | GI50 (M14): 30.8 µM (inactive) | GI50 (MCF7): 29.5 µM (inactive) | GI50 (MDA-MB-231): 23.8 µM (inactive) | GI50 (MDA-MB-435): 29.6 µM (inactive) | GI50 (MDA-N): 33.3 µM (inactive) | GI50 (Malme-3M): 31.8 µM (inactive) | GI50 (NCI-H226): 31 µM (inactive) | GI50 (NCI-H23): 23.9 µM (inactive) | GI50 (NCI-H460): 27.3 µM (inactive) | GI50 (NCI-H522): 18.3 µM (inactive) | GI50 (NCI/ADR-RES): 35.2 µM (inactive) | GI50 (OVCAR-3): 29.9 µM (inactive) | GI50 (OVCAR-4): 30.1 µM (inactive) | GI50 (OVCAR-5): 30.9 µM (inactive) | GI50 (OVCAR-8): 30.8 µM (inactive) | GI50 (PC-3): 37.8 µM (inactive) | GI50 (RPMI-8226): 21.1 µM (inactive) | GI50 (RXF 393): 21.3 µM (inactive) | GI50 (SF-268): 32.5 µM (inactive) | GI50 (SF-295): 32.1 µM (inactive) | GI50 (SF-539): 22.5 µM (inactive) | GI50 (SK-MEL-28): 74 µM (inactive) | GI50 (SK-MEL-2): 54.5 µM (inactive) | GI50 (SK-MEL-5): 16.2 µM (inactive) | GI50 (SK-OV-3): 98.9 µM (inactive) | GI50 (SN12C): 31.5 µM (inactive) | GI50 (SNB-19): 30.5 µM (inactive) | GI50 (SNB-75): 24.9 µM (inactive) | GI50 (SR): 24.5 µM (inactive) | GI50 (SW-620): 44.3 µM (inactive) | GI50 (T47D): 31.5 µM (inactive) | GI50 (TK-10): 43.1 µM (inactive) | GI50 (U-251): 35.2 µM (inactive) | GI50 (UACC-257): 27.6 µM (inactive) | GI50 (UACC-62): 33.6 µM (inactive) | GI50 (UO-31): 18.5 µM (inactive)

CSc1ccc2c(c1)c(CCN)c(C)n2Cc1ccccc1Cl
GI50 (786-0): 1.72 µM (inactive) | GI50 (A498): 1.71 µM (inactive) | GI50 (A549): 1.68 µM (inactive) | GI50 (ACHN): 1.69 µM (inactive) | GI50 (BT-549): 3.26 µM (inactive) | GI50 (CAKI-1): 1.95 µM (inactive) | GI50 (CCRF-CEM): 1.51 µM (inactive) | GI50 (COLO 205): 1.67 µM (inactive) | GI50 (DU-145): 1.66 µM (inactive) | GI50 (EKVX): 1.62 µM (inactive) | GI50 (HCC 2998): 0.74 µM (active) | GI50 (HCT-116): 1.63 µM (inactive) | GI50 (HCT-15): 2.02 µM | GI50 (HL-60): 1.56 µM (inactive) | GI50 (HOP-62): 1.18 µM (inactive) | GI50 (HOP-92): 1.26 µM (inactive) | GI50 (HT-29): 1.6 µM (inactive) | GI50 (Hs-578T): 1.67 µM (inactive) | GI50 (IGROV-1): 1.61 µM (inactive) | GI50 (K562): 1.69 µM (inactive) | GI50 (KM12): 1.82 µM (inactive) | GI50 (LOX IMVI): 1.83 µM (inactive) | GI50 (M14): 1.72 µM (inactive) | GI50 (MCF7): 1.85 µM (inactive) | GI50 (MDA-MB-231): 1.84 µM (inactive) | GI50 (MDA-MB-435): 1.67 µM (inactive) | GI50 (MDA-N): 1.64 µM (inactive) | GI50 (Malme-3M): 1.69 µM (inactive) | GI50 (NCI-H226): 1.66 µM (inactive) | GI50 (NCI-H23): 1.93 µM (inactive) | GI50 (NCI-H460): 1.55 µM (inactive) | GI50 (NCI-H522): 1.5 µM (inactive) | GI50 (NCI/ADR-RES): 2.03 µM (inactive) | GI50 (OVCAR-3): 1.86 µM (inactive) | GI50 (OVCAR-4): 1.73 µM (inactive) | GI50 (OVCAR-5): 1.85 µM (inactive) | GI50 (OVCAR-8): 1.79 µM (inactive) | GI50 (PC-3): 1.52 µM (inactive) | GI50 (RPMI-8226): 1.42 µM (inactive) | GI50 (RXF 393): 1.4 µM (inactive) | GI50 (SF-268): 1.76 µM (inactive) | GI50 (SF-295): 1.82 µM (inactive) | GI50 (SF-539): 1.37 µM (inactive) | GI50 (SK-MEL-28): 1.75 µM (inactive) | GI50 (SK-MEL-2): 1.8 µM (inactive) | GI50 (SK-MEL-5): 1.72 µM (inactive) | GI50 (SK-OV-3): 2 µM (inactive) | GI50 (SN12C): 1.58 µM (inactive) | GI50 (SNB-19): 1.77 µM (inactive) | GI50 (SNB-75): 1.61 µM (inactive) | GI50 (SR): 2.42 µM (inactive) | GI50 (SW-620): 1.78 µM (inactive) | GI50 (T47D): 1.57 µM (inactive) | GI50 (TK-10): 1.73 µM (inactive) | GI50 (U-251): 1.66 µM (inactive) | GI50 (UACC-257): 1.73 µM (inactive) | GI50 (UACC-62): 1.65 µM (inactive) | GI50 (UO-31): 1.52 µM (inactive)
